Earlier results in patent US6960354B1, “Membrane lipid compositions” (Phares Technology BV, priority 1999, dated 2005).

- solubility in ethanol (ethanol): soluble
- solubility in water (water): only sparingly soluble
SMILES: O=C(O)c1ccccc1O [Salicylic acid]
